The text below walks through data of US20230310661A1, “OPHTHALMIC DYE” (Vitreq B.V., priority 2020, published 2023).

The subject of data set [1] is ARPE19 cells. The data set is described as follows: Staining of dead cells and/or living cells: dye content in ARPE19 cells by spectrophotometry. As to conditions: 15 minutes staining; for Adead (maximum absorbance for dead cells): ARPE19 cells fixed with 70% ethanol 5 minutes; for Aliving (maximum absorbance for living cells): living ARPE19 cells. In kind it is cell-based, human.

Data set [2] in a line: Staining ability on PVDF filter as ILM model. The text has this:
Correlation between staining of the filter and observed staining of the ILM in patients (data from (Rodrigues, Penha et al. 2010)) show a good correlation (see FIG. 1). A 96-well filter (MSBVN1210 MultiScreen BV Filter Plate, Merck-Millipore, Darmstadt, Germany) was used as ILM model. The filter material is hydrophilic polyvinylidene difluoride (PVDF). A Collagen Cell Carrier membrane (CCC) (Viscofan, Weinheim, Germany) was used as model for the ERM. Punches of the membrane (5 mm diameter) were fixed to the filter with a hypodermic needle and soaked in PBS for 30 minutes. The PBS was removed by vacuum filtration, and 50 μL of the dye solution was pipetted into the filter well. After 30 s, the dye was removed by vacuum filtration, and membrane and filter were washed three times with PBS. The membrane was removed and put into a 96-well plate for spectrum recording, using a Tecan Spark 20M (Tecan Group Ltd., Männedorf, Switzerland) plate reader. The filter staining of the compounds (6) and (8) according to the invention are shown in FIG. 2 in comparison to that of BBG. […] The intensity of the grey values was measured. For BBG the mean intensity was 201, for compound (6) it was 175, for compound (8) it was 197. On the scale used, 255 is white and 0 is black.

The subject of data set [3] is ARPE-19 cells. The data set is described as follows: Toxicity: survival of cells after exposure to dyes. In kind it is cell-based. The protocol: A preferred dye, being either a compound according to the invention or an additional dye as defined above, has a good staining ability for dead cells, a minimal cellular toxicity in the dark, and a minimal cellular toxicity in the strong illumination necessary for surgery.
According to a preferred definition, a low toxicity means that at least 60%, 65%, 70%, 75%, 80%, 85%, 90% or 95% cell viability is retained after incubation in PBS for 15 minutes at 37° C. and 5% CO2, as determined using the methodology of Example 6.

In data set [4] the test system is ARPE-19 cells. The data set is described as follows: Three-step staining (dye, calcein-AM, propidium iodide) with microphotographs. In kind it is cell-based, human. As to conditions: 0.025% in PBS, room temperature, 15 minutes; 20% ethanol 5 minutes to induce death in some cells; FIG. 3. The protocol: An experiment was carried out with ARPE-19 cells and staining with compound (6).
A three-step staining procedure was used: first the dye was introduced, then calcein-acetoxymethyl ester (calcein-AM), then propidium iodide (PI). Calcein-AM (which is non-fluorescent) is able to penetrate cell membranes and is hydrolyzed by intracellular esterases to calcein, which is fluorescent and which cannot escape through the intact cell membrane. Cells fluorescent for calcein-AM are therefore intact and living cells. Dead cells (cells with a compromised cell membrane) might still hydrolyze calcein-AM, but they are not able to retain the calcein. Cells with compromised cell membranes can take up propidium iodide, a dye which intercalates into DNA and turns fluorescent upon binding.
Cells were grown in 48-well plates. Growth medium was removed and a solution of 20% ethanol was added for 5 minutes in order to induce cell death in some cells. The ethanol solutions were removed. Staining with compound (6) (0.025%) in PBS was carried out at room temperature for 15 minutes. The dye was washed off with PBS. The cells were then exposed to calcein-acetoxymethyl ester (calcein-AM) in PBS for 15 minutes at room temperature. […]

The mark [5] stands for this setting: concentration of the dye 0.025%.

As for `CCN(Cc1cccc(S(=O)(=O)O)c1)c1ccc(C(=C2C=CC(=[N+](CC)Cc3cccc(S(=O)(=O)[O-])c3)C=C2C)c2ccc(Nc3ccc(OC)cc3)cc2)c(C)c1` [Compound (6)], the figures for the “Adead (maximum absorbance for dead cells)” value in data set [1] (setting [5]) and in data set [1] (dye 0.1% w/v in PBS) were 0.3630 and 0.8755, respectively. Also, the “Aliving (maximum absorbance for living cells)” value in data set [1] (setting [5]) was 0.0635; in data set [1] (dye 0.1% w/v in PBS, <0.07 = does not stain), 0.0603. In addition, the “Ability to stain the ILM (comparative statement)” value in data set [2] (PVDF filter as model for the ILM) was “increased ability to stain the ILM compared to BBG”. Besides, in data set [2] (dye 0.025%, 30 s contact, scale 255 is white and 0 is black), the “Mean intensity of the grey values of stained filter” value was 175. Also, the “Filter staining in comparison to BBG” value in data set [2] (equal concentrations of 0.025%, FIG. 2) was “Much stronger staining”. For the same compound, the “Survival of ARPE-19 cells” value in data set [3] (0.1% in PBS for 15 minutes at 37° C.) is listed as 103%. In data set [3] (dye concentration 0.025%), the Survival amounted to 103%. Also, the “Staining of living cells (microscopy)” value in data set [4] was “does not stain living cells”.
